# Reference: publication PMC11113362 (MicrobiologyOpen, 2024)
# Entries after “also recorded” stand apart in the source; their conditions may differ. Read-outs that look alike come from different tables or passages of the source. Where a SMILES comes first, the peptide text is derived from it.
# T1: AruS‐LBD (PA4982, residues 31–141) (Pseudomonas aeruginosa, UniProt Q9HUI3)
# T1 sequence (Q9HUI3 whole entry, looked up): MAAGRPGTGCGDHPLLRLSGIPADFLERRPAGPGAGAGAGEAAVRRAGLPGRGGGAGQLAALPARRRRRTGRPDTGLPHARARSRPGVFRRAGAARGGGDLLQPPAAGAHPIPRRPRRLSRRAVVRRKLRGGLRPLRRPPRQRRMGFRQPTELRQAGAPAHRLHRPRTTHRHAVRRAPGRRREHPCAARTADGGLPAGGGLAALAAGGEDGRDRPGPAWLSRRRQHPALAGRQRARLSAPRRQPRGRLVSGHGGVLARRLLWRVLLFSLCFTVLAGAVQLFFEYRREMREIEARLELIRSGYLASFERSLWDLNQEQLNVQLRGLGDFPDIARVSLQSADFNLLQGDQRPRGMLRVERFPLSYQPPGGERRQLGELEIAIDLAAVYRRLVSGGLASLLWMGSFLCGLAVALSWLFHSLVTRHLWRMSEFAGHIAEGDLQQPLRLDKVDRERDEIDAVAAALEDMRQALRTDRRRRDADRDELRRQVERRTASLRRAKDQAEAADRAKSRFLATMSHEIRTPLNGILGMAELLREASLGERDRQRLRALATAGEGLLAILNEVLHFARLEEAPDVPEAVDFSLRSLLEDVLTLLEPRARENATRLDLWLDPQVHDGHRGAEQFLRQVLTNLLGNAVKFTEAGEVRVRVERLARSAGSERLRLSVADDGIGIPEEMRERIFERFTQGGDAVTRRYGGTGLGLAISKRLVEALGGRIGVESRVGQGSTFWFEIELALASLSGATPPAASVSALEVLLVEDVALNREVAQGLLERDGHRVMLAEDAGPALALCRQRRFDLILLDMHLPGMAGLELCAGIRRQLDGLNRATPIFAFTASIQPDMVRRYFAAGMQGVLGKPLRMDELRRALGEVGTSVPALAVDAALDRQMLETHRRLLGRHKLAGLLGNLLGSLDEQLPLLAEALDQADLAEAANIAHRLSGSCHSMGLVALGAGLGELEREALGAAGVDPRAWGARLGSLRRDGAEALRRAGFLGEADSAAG
# B1: AgtB: recombinant His‐tagged solute binding protein (SBP_bac_8) of P. aeruginosa PAO1, part of the agt transporter operon (protein)
# chain: MGSSHHHHHHSSGLVPRGSHMAVDLTVVSFGGANKSAQIKAFYEPYQKATGNRIVAGEYNGEMAKVKAMVDTNSVSWDLVEVESPELSRGCDEGLFEELDPAQFGKTEDFVPGAIQPCGVGFFVWSTVLAYNADKLKSAPTSWADFWDIKKFPGKRGLRKGAKYTLEFALMADGVAPKDVYGVLATKEGQDRAFKKLDEIKSSIQWWEAGAQPPQYLASGDVVMSSAYNGRIAAVQKESNLKVVWNGGIYDFDAWAIPKGAKKREETLKFIAFSVQPQQQKTYSENIAYGPANKQAVPLLDKALLKDMPTTPENIQNQVAMDVTFWADYGEQLEQRFNAWAAR
# B2: PA4985: solute binding protein (SBP_bac_8) of P. aeruginosa PAO1 encoded near the aruSR TCS (protein)
# chain: MGSSHHHHHHSSGLVPRGSHMADDGLVVVGYGGAGQKAQEVAFFQPFTQQTGIPVVQSEYNGEMARIKVMADTGHADWDLVQVEGPDLARGCDDGLFERLDWQAIGGKQQLIANAAQECGSAALVWGVAIGYDADRLQQPPASWADFWDVQRFPGKRGLRKRAIYNLEFALLADGVPREQVYPLLATRAGADRAFAKLGQLKPYIQWWEAGAQPAQWLAAGDVVMTSTYTGRIADAHRAGRNLALVWQGSLYGMDYWAVVKGSKRGAEARRFIAFANAPDAQVRYVENIPYGPTNRQAAQRLPAQLASWVPTAPANLEQGLAMDDEFWVEHGEELEERFNAWASQ
# B3: PA0602: recombinant His‐tagged solute binding protein (SBP_bac_8) of P. aeruginosa PAO1 (protein)
# chain: MGSSHHHHHHSSGLVPRGSHMAEYVTVISFGGANKEAQETAFYKPFKSATGNRVVHGSYNGDLAKLKRMVEISHVSWDVVEVEAPELARGCEEGLFEKLDMAKVGDPADFVPGAVQPCGVGIFVWTTLLAYNPGKVAGSPQGWADFWDVKKFPGKRGLRWGAKYSLEFALMADGVAPKDVYQTLATPAGVERAFRKLDELKPYIHWWKSGQDPVRDLADGTVVMSSAYNGRIAAAQAEKQRLAMVWSGGVYDFDFWALPVGVWKKQLAEEFIRFASQPEQQKAFAENIAYGPANRKAVGLLDPQVAANLPTAPQNMQNAVGMNVAFWAEHGEALEQRFQNWAKR
# How the values were obtained:
# [1] = target: T2, AgtB (PA0604) solute binding protein (Pseudomonas aeruginosa, UniProt Q9I5T4); experiment: biochemical
# Method: (§1) Experiments were conducted on a VP‐microcalorimeter (Microcal). Proteins were dialyzed into the TMP buffer, placed at a concentration of 20–40 µM into the sample cell and titrated with 0.25–2.5 mM ligand solutions that were prepared using the dialysis buffer immediately before use. […] The mean enthalpies measured from the injection of ligands into the buffer were subtracted from raw titration data before data analysis with the MicroCal version of ORIGIN. Data were fitted with the “One binding site model” of ORIGIN.
# P. aeruginosa PAO1 = experiment: Growth experiments with ligand as sole carbon source; details: M9 minimal medium, 10 mM compound, 37°C
# [2] = target: T3, PA0602 solute binding protein (Pseudomonas aeruginosa, UniProt Q9I5T6); details: thermal shift assay, Biolog compound arrays, more than 2°C considered significant
# Method: (§2) Briefly, assays were carried out using a MyIQ2 Real‐Time PCR instrument (BioRad). Experiments were conducted in 96‐well plates, and each assay mixture contained 20.5 μL of the dialyzed protein at 10–50 μM, 2 μL of 5X SYPRO orange (Life Technologies) and 2.5 μL of ligand solution or the equivalent amount of buffer in the ligand‐free control. Compound arrays PM1, PM2a, PM3B, PM4A, PM5, PM6, PM7, and PM8 from Biolog (Newark) were used. Compounds were dissolved in 50 μL water that, according to the information provided by the manufacturer, corresponds to a concentration of 10–20 mM. […] The protein unfolding curves were monitored by detecting changes in SYPRO Orange fluorescence. The Tm values correspond to the minima of the first derivatives of the raw fluorescence data.
# The PA0602 protein was overexpressed in E. coli and purified. Freshly dialyzed protein was submitted to thermal shift assays‐based ligand screening using the Biolog compound arrays PM1, PM2A (both carbon sources), PM3B (nitrogen sources), PM4 (phosphorous and sulfur sources), PM5 (nutrient supplements), PM6, PM7, and PM8 (all peptide nitrogen sources). Ligand binding to the protein typically delays thermal unfolding causing increases in the midpoint of the protein unfolding transition (Tm). Tm increases of more than 2°C are considered significant.
# [3] = target: T3, PA0602 solute binding protein; experiment: biochemical; design: species or system Pseudomonas aeruginosa PAO1; details: for K D: PA0602, microcalorimetric titration, TMP buffer pH 8
# From the text: At times thermal shift assays provide […] results, i.e. although there is binding, the Tm shift induced is only minor.
# [4] = target: T4, PA4985 solute binding protein (Pseudomonas aeruginosa, UniProt Q9HUI0); details: thermal shift assay, Biolog compound arrays, more than 2°C considered significant
# Method: as §2
# [5] = target: T4, PA4985 solute binding protein; experiment: biochemical; design: species or system Pseudomonas aeruginosa PAO1
# From the text: PA4985 is an uncharacterized protein. […] .
# [6] = target: T2, AgtB (PA0604) solute binding protein; details: microcalorimetric titration, TMP buffer pH 8
# Method: as §1
# PA0602 = target: T5, PA0602 (Pseudomonas aeruginosa, UniProt Q9I5T6); experiment: Isothermal titration calorimetry (VP-microcalorimeter) of 20-40 µM purified SBP titrated with 0.25-2.5 mM ligand in TMP buffer (5 mM Tris-HCl, 5 mM MES, 5 mM PIPES, 10% glycerol, pH 8), fitted with the one binding site model; temperature not stated.
# T5 construct: residues 22-344, signal peptide omitted, N-terminal His-tag with thrombin site, expressed in E. coli BL21 (DE3)
# PA4985 = target: T6, PA4985 (Pseudomonas aeruginosa, UniProt Q9HUI0); experiment: as above
# T6 construct: residues 40-363, signal peptide omitted, N-terminal His-tag with thrombin site, expressed in E. coli BL21 (DE3)
# P. aeruginosa = system: P. aeruginosa; design: method as in Dagorn et al., 2013; details: 10 μM GABA; ref Dagorn et al., 2013; cited from earlier work
# [7] = system: AgtS‐LBD (PA0600, amino acids 22–274); experiment: Isothermal titration calorimetry of AgtS‐LBD (small ligand and protein‐protein binding studies); details: for K D (binding of SBP to AgtS‐LBD): 5–10 μM SBP titrated with 50–97 μM AgtS‐LBD, no small ligand; for Protein–protein interaction with AgtS‐LBD, His‐tag‐free protein: His‐tag removed by thrombin, in the presence of GABA (PA0602) or 5‐AMV (AgtB); for K D (binding of ligand‐loaded SBP to AgtS‐LBD): both compartments contained 5 mM 5‐AMV (AgtB) or 1 mM GABA (PA0602)
# Method: as §1
# Fractions that correspond to cleaved protein were dialyzed overnight into the TMP buffer for ITC experiments.
# To address this issue, the individual AgtS‐LBD was produced as a purified, recombinant protein.
# To assess the possibility of SBP‐mediated activation of AgtS, we conducted protein‐protein microcalorimetric binding studies (Table 1).
# Proteins used for these experiments contained an N‐terminal extension harboring the His‐tag. To exclude the possibility that the presence of this extension impedes protein interaction, the tag was cleaved with thrombin in freshly purified PA0602, AgtB, and AgtS‐LBD and its removal was verified by SDS‐PAGE (Figure A4).
# [8] = target: T2, AgtB (PA0604) solute binding protein; details: thermal shift assay, Biolog compound arrays, more than 2°C considered significant
# Method: as §2
# To identify the ligands that interact with AgtB, we pursued the same strategy and screened for ligand binding using the PM1 to PM8 compound arrays.
# [9] = target: T1, AruS‐LBD (PA4982, residues 31–141); experiment: Bacterial two‐hybrid assay (BACTH); details: BACTH in E. coli BTH101 on X‐Gal plates; no ligand or GABA, 5‐AMV, spermidine or ethylenediamine at 5 mM
# Method: Plates were incubated at 30°C for 24–48 h. As a positive control, the plasmids pKT25‐zip and pUT18C‐zip were co‐transformed into E. coli BTH101. Negative controls were E. coli BTH101 harboring pUT18C and pKNT25::AruS (strain K^+T^−), and a strain harboring pUT18C::PA4985 and pKNT25 (strain K^−T^+).
# This system is based on an adenylate cyclase that contains two catalytically active domains. […] The resulting increase in cAMP induces the expression of lactose and maltose operons, causing a blue colouration of bacteria on X‐Gal‐containing plates. We generated a plasmid that expresses PA4985 fused to one enzyme subunit (pUT18C::PA4985) and a plasmid encoding a fusion of AruS‐LBD to the other subunit (pKNT25::AruS). E. coli BTH101 was transformed with both plasmids, resulting in strain K^+T^+. The K^+T^− and K^−T^+ are negative control strains that contained one of the plasmid constructs (plus sign) and the empty version of the second plasmid (minus sign). The positive control (C+) was provided by the manufacturer.
molecule,measurement,setting,value
"NCCCCC(=O)O [5‐AMV, 5‐aminovalerate]",Kd,[1],17 ± 0.8 µM
same,Growth as sole carbon source,P. aeruginosa PAO1,significant growth
same,Tm shift,[2],2.3 °C
same,Kd,[3],30 ± 2 µM
same,Tm shift,[4],7.6 °C
same,Kd,[5],1600 ± 100 nM
C[C@H](N)C(=O)NCC(=O)O [Ala‐Gly] (H-Ala-Gly-OH),K D,[6],did not reveal binding
"NCCN [Ethylenediamine, ethylenediamine]",Tm shift,[2],2.0 °C
same,Kd,PA0602,103 ± 4 µM
same,Tm shift,[4],3.5 °C
same,Kd,PA4985,19 ± 1 µM
"NCCCC(=O)O [GABA, γ‐aminobutyrate]",Growth as sole carbon source,P. aeruginosa PAO1,significant growth
same,Kd,[3],2.3 ± 0.8 µM
same,K D,[6],did not reveal binding; also recorded: No binding
same,Kd,[5],580 ± 100 nM
same,Cytotoxicity and virulence,P. aeruginosa,strongly increased
same,Growth or motility,P. aeruginosa,did not modulate
NCC(=O)N[C@@H](CCC(N)=O)C(=O)O [Gly‐Gln] (H-Gly-Gln-OH),K D,[6],did not reveal binding
N=C(N)NCCC[C@H](N)C(=O)O [L‐Arg],Tm shift,[4],No binding
same,K D,"[5]; PA4985, microcalorimetric titration, TMP buffer pH 8",No binding
CC(=O)N[C@@H]1[C@@H](O)[C@H](O)[C@@H](CO)O[C@@H]1O [N‐acetyl‐D‐glucosamine],Binding of small ligand to AgtS‐LBD,[7]; microcalorimetric titration of AgtS‐LBD,did not show binding
same,Tm shift,[8],absence of binding; also recorded: No binding
same,Tm shift,[2],absence of binding
same,Tm shift,[2]; listed as NADG,No binding
same,K D,[3],absence of binding
same,K D,[3]; listed as NADG,No binding
same,K D,[6],absence of binding; also recorded: No binding
"NCCCCNCCCN [Spermidine, spermidine]",Growth as sole carbon source,P. aeruginosa PAO1,significant growth
same,Tm shift,[2],No binding
same,K D,[3],No binding
same,Tm shift,[4],2.8 °C
same,Kd,[5],160000 ± 23000 nM
NCCCCN [putrescine],Tm shift,[2],No binding
same,K D,[3],No binding
NCCC(=O)O [β‐alanine],Tm shift,[8],No binding
same,K D,[6],No binding
B1,K D (binding of SBP to AgtS‐LBD),[7],did not show any binding; also recorded: did not reveal binding; also recorded: No binding
same,"Protein–protein interaction with AgtS‐LBD, His‐tag‐free protein",[7],did not result in any protein–protein interaction
same,K D (binding of ligand‐loaded SBP to AgtS‐LBD),[7],absence of binding
B2,PA4985/AruS‐LBD interaction,[9],did not demonstrate an interaction; also recorded: absence of an PA4985/AruS–LBD interaction
B3,K D (binding of SBP to AgtS‐LBD),[7],did not show any binding; also recorded: did not reveal binding; also recorded: No binding
same,"Protein–protein interaction with AgtS‐LBD, His‐tag‐free protein",[7],did not result in any protein–protein interaction
same,K D (binding of ligand‐loaded SBP to AgtS‐LBD),[7],absence of binding
